Reference: ChEMBL document CHEMBL1201862, “PubChem BioAssay data set” (2004)
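Each compound was tested at five concentrations against cells in 96-well plates for 48 hours. GI50 marks 50% less growth.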 Activity calls are given as the source filed them. Rule as the data show it: active = GI50 up to about 1.1 µM and inactive = higher.

Key:
Experiment in all cases: DTP human tumour cell line panel, 48 h
RXF 393 = test system: RXF 393
SN12C = test system: SN12C
NCI-H460 = test system: NCI-H460
HT-29 = test system: HT-29
MCF7 = test system: MCF7
NCI-H226 = test system: NCI-H226
HOP-62 = test system: HOP-62
CCRF-CEM = test system: CCRF-CEM
UACC-257 = test system: UACC-257
HCC 2998 = test system: HCC 2998
MDA-MB-231 = test system: MDA-MB-231
NCI/ADR-RES = test system: NCI/ADR-RES
M14 = test system: M14
SW-620 = test system: SW-620
SK-OV-3 = test system: SK-OV-3
OVCAR-8 = test system: OVCAR-8
NCI-H522 = test system: NCI-H522
CAKI-1 = test system: CAKI-1
KM12 = test system: KM12
A549 = test system: A549
Hs-578T = test system: Hs-578T
OVCAR-5 = test system: OVCAR-5
HCT-116 = test system: HCT-116
T47D = test system: T47D
TK-10 = test system: TK-10
SK-MEL-5 = test system: SK-MEL-5
SF-295 = test system: SF-295
MOLT-4 = test system: MOLT-4
HL-60 = test system: HL-60
OVCAR-3 = test system: OVCAR-3
UACC-62 = test system: UACC-62
MDA-MB-435 = test system: MDA-MB-435
NCI-H23 = test system: NCI-H23
MDA-N = test system: MDA-N
ACHN = test system: ACHN
HOP-92 = test system: HOP-92
EKVX = test system: EKVX
HCT-15 = test system: HCT-15
SF-539 = test system: SF-539
SR = test system: SR
U-251 = test system: U-251
DU-145 = test system: DU-145
786-0 = test system: 786-0
UO-31 = test system: UO-31
RPMI-8226 = test system: RPMI-8226
SNB-75 = test system: SNB-75
IGROV-1 = test system: IGROV-1
A498 = test system: A498
LOX IMVI = test system: LOX IMVI
COLO 205 = test system: COLO 205
SF-268 = test system: SF-268
Malme-3M = test system: Malme-3M
PC-3 = test system: PC-3
SNB-19 = test system: SNB-19
SK-MEL-2 = test system: SK-MEL-2
SK-MEL-28 = test system: SK-MEL-28
OVCAR-4 = test system: OVCAR-4
K562 = test system: K562
BT-549 = test system: BT-549

CCOC(=O)[C@@H]1ON2O[C@@H](OC3CCCC3(c3ccccc3)c3ccccc3)C[C@H]3OC(=O)[C@@H]1C32 (stereo partly specified)
GI50 (RXF 393): 17.1 µM (inactive)
GI50 (SN12C): 32.8 µM (inactive)
GI50 (NCI-H460): 35.6 µM (inactive)
GI50 (HT-29): 15.2 µM (inactive)
GI50 (MCF7): 20.8 µM (inactive)
GI50 (NCI-H226): 56.6 µM (inactive)
GI50 (HOP-62): 31 µM (inactive)
GI50 (CCRF-CEM): 27.5 µM (inactive)
GI50 (UACC-257): 21.4 µM (inactive)
GI50 (HCC 2998): 41.8 µM (inactive)
GI50 (MDA-MB-231): 25.2 µM (inactive)
GI50 (NCI/ADR-RES): 34.4 µM (inactive)
GI50 (M14): 16.6 µM (inactive)
GI50 (SW-620): 24.7 µM (inactive)
GI50 (SK-OV-3): 86.5 µM (inactive)
GI50 (OVCAR-8): 32.8 µM (inactive)
GI50 (NCI-H522): 33.1 µM (inactive)
GI50 (CAKI-1): 17.2 µM (inactive)
GI50 (KM12): 15.6 µM (inactive)
GI50 (A549): < 0.01 µM (active)
GI50 (Hs-578T): 31.4 µM (inactive)
GI50 (OVCAR-5): 20.9 µM (inactive)
GI50 (HCT-116): 33.8 µM (inactive)
GI50 (T47D): 22.3 µM (inactive)
GI50 (TK-10): 21.1 µM (inactive)
GI50 (SK-MEL-5): 32 µM (inactive)
GI50 (SF-295): > 100 µM (inactive)
GI50 (MOLT-4): 29.9 µM (inactive)
GI50 (HL-60): 23.2 µM (inactive)
GI50 (OVCAR-3): 23.4 µM (inactive)
GI50 (UACC-62): 19.1 µM (inactive)
GI50 (MDA-MB-435): 16.8 µM (inactive)
GI50 (NCI-H23): 18.4 µM (inactive)
GI50 (MDA-N): 20.7 µM (inactive)
GI50 (ACHN): 19.5 µM (inactive)
GI50 (HOP-92): 64.6 µM (inactive)
GI50 (EKVX): > 100 µM (inactive)
GI50 (HCT-15): 31 µM
GI50 (SF-539): 24.9 µM (inactive)
GI50 (SR): 23.1 µM (inactive)
GI50 (U-251): 56.4 µM (inactive)
GI50 (DU-145): 22.6 µM (inactive)
GI50 (786-0): 30.2 µM (inactive)
GI50 (UO-31): 19.1 µM (inactive)
GI50 (RPMI-8226): 35.6 µM (inactive)
GI50 (SNB-75): 32.4 µM (inactive)
GI50 (IGROV-1): 33.8 µM (inactive)
GI50 (A498): > 100 µM (inactive)
GI50 (LOX IMVI): 37.8 µM (inactive)
GI50 (COLO 205): 38.1 µM (inactive)
GI50 (SF-268): 28.7 µM (inactive)

CCOC(=O)c1c(N2CCCC2)nsc1Nc1ccccc1
GI50 (RXF 393): > 100 µM (inactive)
GI50 (SN12C): > 100 µM (inactive)
GI50 (NCI-H460): > 100 µM (inactive)
GI50 (HT-29): > 100 µM (inactive)
GI50 (Malme-3M): > 100 µM (inactive)
GI50 (NCI-H226): > 100 µM (inactive)
GI50 (CCRF-CEM): > 100 µM (inactive)
GI50 (UACC-257): > 100 µM (inactive)
GI50 (HCC 2998): > 100 µM (inactive)
GI50 (MDA-MB-231): > 100 µM (inactive)
GI50 (NCI/ADR-RES): > 100 µM (inactive)
GI50 (M14): > 100 µM (inactive)
GI50 (SW-620): > 100 µM (inactive)
GI50 (OVCAR-8): > 100 µM (inactive)
GI50 (CAKI-1): > 100 µM (inactive)
GI50 (KM12): > 100 µM (inactive)
GI50 (A549): > 100 µM (inactive)
GI50 (Hs-578T): 60 µM (inactive)
GI50 (OVCAR-5): 44.6 µM (inactive)
GI50 (HCT-116): > 100 µM (inactive)
GI50 (T47D): > 100 µM (inactive)
GI50 (PC-3): > 100 µM (inactive)
GI50 (TK-10): > 100 µM (inactive)
GI50 (SK-MEL-5): > 100 µM (inactive)
GI50 (SF-295): > 100 µM (inactive)
GI50 (SNB-19): > 100 µM (inactive)
GI50 (MOLT-4): > 100 µM (inactive)
GI50 (HL-60): > 100 µM (inactive)
GI50 (SK-MEL-2): > 100 µM (inactive)
GI50 (NCI-H23): > 100 µM (inactive)
GI50 (MDA-N): > 100 µM (inactive)
GI50 (SK-MEL-28): > 100 µM (inactive)
GI50 (ACHN): > 100 µM (inactive)
GI50 (HOP-92): 40.6 µM (inactive)
GI50 (EKVX): > 100 µM (inactive)
GI50 (HCT-15): > 100 µM
GI50 (SF-539): > 100 µM (inactive)
GI50 (SR): > 100 µM (inactive)
GI50 (DU-145): > 100 µM (inactive)
GI50 (786-0): > 100 µM (inactive)
GI50 (UO-31): 27.5 µM (inactive)
GI50 (RPMI-8226): > 100 µM (inactive)
GI50 (OVCAR-4): > 100 µM (inactive)
GI50 (SNB-75): > 100 µM (inactive)
GI50 (IGROV-1): > 100 µM (inactive)
GI50 (A498): > 100 µM (inactive)
GI50 (K562): > 100 µM (inactive)
GI50 (LOX IMVI): > 100 µM (inactive)
GI50 (COLO 205): > 100 µM (inactive)
GI50 (SF-268): > 100 µM (inactive)

Brc1ccc2nc(-c3cccs3)nc(N3CCN(c4ccccc4)CC3)c2c1
GI50 (SN12C): > 100 µM (inactive)
GI50 (NCI-H460): > 100 µM (inactive)
GI50 (BT-549): > 100 µM (inactive)
GI50 (HT-29): > 100 µM (inactive)
GI50 (MCF7): > 100 µM (inactive)
GI50 (Malme-3M): > 100 µM (inactive)
GI50 (NCI-H226): > 100 µM (inactive)
GI50 (HOP-62): > 100 µM (inactive)
GI50 (UACC-257): > 100 µM (inactive)
GI50 (HCC 2998): > 100 µM (inactive)
GI50 (MDA-MB-231): > 100 µM (inactive)
GI50 (NCI/ADR-RES): > 100 µM (inactive)
GI50 (M14): > 100 µM (inactive)
GI50 (SW-620): > 100 µM (inactive)
GI50 (SK-OV-3): > 100 µM (inactive)
GI50 (OVCAR-8): > 100 µM (inactive)
GI50 (NCI-H522): > 100 µM (inactive)
GI50 (CAKI-1): > 100 µM (inactive)
GI50 (KM12): > 100 µM (inactive)
GI50 (A549): > 100 µM (inactive)
GI50 (Hs-578T): > 100 µM (inactive)
GI50 (OVCAR-5): > 100 µM (inactive)
GI50 (HCT-116): > 100 µM (inactive)
GI50 (T47D): > 100 µM (inactive)
GI50 (PC-3): > 100 µM (inactive)
GI50 (TK-10): > 100 µM (inactive)
GI50 (SK-MEL-5): > 100 µM (inactive)
GI50 (SF-295): > 100 µM (inactive)
GI50 (SNB-19): > 100 µM (inactive)
GI50 (HL-60): > 100 µM (inactive)
GI50 (OVCAR-3): > 100 µM (inactive)
GI50 (UACC-62): > 100 µM (inactive)
GI50 (MDA-MB-435): > 100 µM (inactive)
GI50 (SK-MEL-2): > 100 µM (inactive)
GI50 (NCI-H23): > 100 µM (inactive)
GI50 (SK-MEL-28): > 100 µM (inactive)
GI50 (ACHN): > 100 µM (inactive)
GI50 (HOP-92): > 100 µM (inactive)
GI50 (EKVX): > 100 µM (inactive)
GI50 (HCT-15): > 100 µM
GI50 (SF-539): > 100 µM (inactive)
GI50 (SR): > 100 µM (inactive)
GI50 (U-251): > 100 µM (inactive)
GI50 (DU-145): > 100 µM (inactive)
GI50 (786-0): > 100 µM (inactive)
GI50 (UO-31): > 100 µM (inactive)
GI50 (RPMI-8226): > 100 µM (inactive)
GI50 (OVCAR-4): > 100 µM (inactive)
GI50 (SNB-75): > 100 µM (inactive)
GI50 (IGROV-1): > 100 µM (inactive)
GI50 (A498): > 100 µM (inactive)
GI50 (K562): > 100 µM (inactive)
GI50 (LOX IMVI): > 100 µM (inactive)
GI50 (COLO 205): > 100 µM (inactive)
GI50 (SF-268): > 100 µM (inactive)

Cc1c(CCN=P(c2ccccc2)(c2ccccc2)c2ccccc2)c(=O)n2c([nH]c3ccccc32)c1C#N
GI50 (RXF 393): > 10 µM (inactive)
GI50 (SN12C): > 10 µM (inactive)
GI50 (HT-29): > 10 µM (inactive)
GI50 (MCF7): > 10 µM (inactive)
GI50 (Malme-3M): > 10 µM (inactive)
GI50 (HOP-62): > 10 µM (inactive)
GI50 (CCRF-CEM): 6.93 µM (inactive)
GI50 (UACC-257): > 10 µM (inactive)
GI50 (HCC 2998): > 10 µM (inactive)
GI50 (MDA-MB-231): > 10 µM (inactive)
GI50 (M14): > 10 µM (inactive)
GI50 (SW-620): > 10 µM (inactive)
GI50 (SK-OV-3): > 10 µM (inactive)
GI50 (OVCAR-8): > 10 µM (inactive)
GI50 (CAKI-1): > 10 µM (inactive)
GI50 (KM12): > 10 µM (inactive)
GI50 (A549): > 10 µM (inactive)
GI50 (T47D): > 10 µM (inactive)
GI50 (PC-3): > 10 µM (inactive)
GI50 (TK-10): > 10 µM (inactive)
GI50 (SK-MEL-5): > 10 µM (inactive)
GI50 (SF-295): > 10 µM (inactive)
GI50 (MOLT-4): 6.19 µM (inactive)
GI50 (HL-60): 7.21 µM (inactive)
GI50 (UACC-62): > 10 µM (inactive)
GI50 (NCI-H23): > 10 µM (inactive)
GI50 (MDA-N): > 10 µM (inactive)
GI50 (SK-MEL-28): > 10 µM (inactive)
GI50 (EKVX): > 10 µM (inactive)
GI50 (HCT-15): > 10 µM
GI50 (SR): 8.75 µM (inactive)
GI50 (DU-145): > 10 µM (inactive)
GI50 (786-0): > 10 µM (inactive)
GI50 (RPMI-8226): > 10 µM (inactive)
GI50 (SNB-75): > 10 µM (inactive)
GI50 (IGROV-1): > 10 µM (inactive)
GI50 (K562): 8.36 µM (inactive)
GI50 (LOX IMVI): > 10 µM (inactive)
GI50 (COLO 205): > 10 µM (inactive)
GI50 (SF-268): > 10 µM (inactive)
